The results in this text go back to ChEMBL document CHEMBL1157916, “Cytotoxicity against KB and NCI-H187 cell lines of modified flavonoids from Kaempferia parviflora” (Bioorg Med Chem Lett, 2010).

The subject of assay [1] is NCI-H187. Put plainly: Selectivity ratio of IC50 of ellipticine to IC50 of compound for human NCI-H187 cells. The format is functional.
In assay [2] the test system is KB. Put plainly: Cytotoxicity against human KB cells after 3 days by Resazurin Microplate Assay. The format is functional, cell-based. Conditions: 72 h; call rule not given here.
In assay [3] the test system is NCI-H187. Put plainly: Cytotoxicity against human NCI-H187 cells after 5 days by Resazurin Microplate Assay. The format is functional, cell-based. Conditions: NCI-H187, 120 h.
Assay [4] has as its system Vero. Put plainly: Cytotoxicity against african green monkey Vero cells by green fluorescent protein based assay. Format: cell-based. The settings on record: Chlorocebus sabaeus.
Assay [5] relates to Vero. Put plainly: Selectivity ratio of IC50 for african green monkey Vero cells to IC50 for human KB cells.
For assay [6], the system named is Vero. Put plainly: Selectivity ratio of IC50 for african green monkey Vero cells to IC50 for human NCI-H187 cells.
Assay [7] deals with KB. Put plainly: Cytotoxicity against human KB cells at >100 uM after 3 days by Resazurin Microplate Assay. Format: functional, cell-based. In general terms: The colour change of resazurin is a common sign of viable cells or microbes.
Assay [8] concerns NCI-H187. Put plainly: Cytotoxicity against human NCI-H187 cells at >100 uM after 5 days by Resazurin Microplate Assay. Format: functional, cell-based.
Assay [9] deals with Vero. Put plainly: Cytotoxicity against african green monkey Vero cells at >100 uM by green fluorescent protein based assay. Format: cell-based, Chlorocebus sabaeus.

For the molecule `COc1cc(O)c2c(c1)OC(c1ccccc1)C/C2=N/O` (stereo unspecified), the entries for the “fold change (FC)” value with NCI-H187 [1], in the assay on Vero [5] and in the assay on Vero [6] were 200, 10 and 190, respectively. The IC50 with KB [2] was 0.26 µM; with NCI-H187 [3], 0.014 µM; with Vero [4] it was 2.67 µM.

Consider `COc1ccc(C2CC(=O)c3c(OC)cc(OC)cc3O2)cc1` (racemic), for which the IC50 in the assay on KB [2] worked out at 78.8 µM; in the assay with NCI-H187 [3], 25.1 µM.

Consider `Cc1c2ccncc2c(C)c2c1[nH]c1ccccc12` [ELLIPTECINE], for which the values for the IC50 with KB [2], in the assay with NCI-H187 [3] and in the assay on Vero [4] were 1.79 µM, 2.77 µM and 2.29 µM, respectively.

Regarding `O=C1C[C@@H](c2ccccc2)Oc2cc(O)cc(O)c21` [PINOCEMBRIN], the results for the IC50 with KB [2] and in the assay on NCI-H187 [3] were 99.2 µM and 95.5 µM, respectively.

Consider `COc1cc(O)c(C(=O)CCc2ccccc2)c(O)c1`, for which the IC50 result in the assay with KB [7] is “Not Active”; in the assay on NCI-H187 [3] it was 9.7 µM.

With `COc1cc(O)c2c(=O)cc(-c3ccccc3)oc2c1` [TECHTOCHRYSIN], the IC50 entry is listed as “Not Active” with KB [7], “Not Active” in the assay on NCI-H187 [8] and “Non-toxic” in the assay with Vero [9].

Consider `O/N=C1\CC(c2ccccc2)Oc2cc(O)cc(O)c21` (stereo unspecified), for which the IC50 in the assay with KB [2] is 84.9 µM; in the assay on NCI-H187 [3], 2.32 µM; with Vero [9], “Non-toxic”.

Consider `COc1cc(OC)c2c(=O)cc(-c3ccccc3)oc2c1` [CHRYSIN DIMETHYL ETHER], for which the IC50 result in the assay with KB [7] is listed as “Not Active”; with NCI-H187 [8] it was “Not Active”; with Vero [9] it was “Non-toxic”.

Turning to `COc1cc(OC)c2c(c1)OC(c1ccccc1)CC2=O` (stereo unspecified) [DIMETHYLPINOCEMBRIN], the IC50 in the assay on KB [2] turned out to be 39.9 µM; with NCI-H187 [3], 33.1 µM.

As to `COc1cc(O)c2c(c1)O[C@H](c1ccccc1)[C@H](OC)C2=O` (mixture of isomers), the results for the IC50 with KB [2] and with NCI-H187 [3] were 30.4 µM and 98.2 µM, respectively.

For `COc1cc(OC)c2c(c1)OC(c1ccccc1)C/C2=N\O` (stereo unspecified), the IC50 result with KB [7] is “Not Active”; with NCI-H187 [3], 53.2 µM.

For `COc1cc(O)c2c(=O)c(OC)c(-c3ccccc3)oc2c1`, the IC50 entry is reported as “Not Active” in the assay on KB [7], “Not Active” in the assay with NCI-H187 [8] and “Non-toxic” with Vero [9].

Consider `COc1cc(O)c2c(c1)O[C@H](c1ccccc1)CC2=O` [PINOSTROBIN], for which the IC50 result in the assay on KB [7] and with NCI-H187 [8] was “Not Active” in each case.

Regarding `COc1ccc(C2C/C(=N\O)c3c(OC)cc(OC)cc3O2)cc1` (stereo unspecified), the IC50 with KB [2] was 43.1 µM; in the assay on NCI-H187 [3], 4.04 µM; with Vero [9], “Non-toxic”.

Take `COc1ccc(-c2cc(=O)c3c(OC)cc(OC)cc3o2)cc1` [TRIMETHYLAPIGENIN]: the results for the IC50 result in the assay on KB [7], in the assay with NCI-H187 [8] and in the assay on Vero [9] were “Not Active”, “Not Active” and “Non-toxic”, respectively.

In the case of `COc1ccc(C2CC(O)c3c(OC)cc(OC)cc3O2)cc1` (stereo unspecified), the IC50 result in the assay with KB [7] and in the assay with NCI-H187 [8] was “Not Active” each time.

For the molecule `COc1cc(OC)c2c(c1)OC(c1ccccc1)CC2O` (stereo unspecified), the IC50 result is “Not Active” in the assay on NCI-H187 [8] and 92.1 µM with KB [2].

As for `COc1ccc(CCC(=O)c2c(O)cc(OC)cc2OC)cc1`, the IC50 entry with KB [7] and in the assay with NCI-H187 [8] was “Not Active” each time.

With `COc1cc(O)c2c(c1)O[C@H](c1ccccc1)[C@H](OC)[C@@H]2O` (racemic), the IC50 came out at 56.8 µM in the assay with KB [2] and 95.6 µM in the assay on NCI-H187 [3].

As to `COc1cc(O)c(C(=O)CCc2ccccc2)c(OC)c1`, the IC50 result in the assay on KB [7] and in the assay on NCI-H187 [8] was “Not Active” each time.

As to `COc1cc(O)c2c(c1)OC(c1ccccc1)C(OC)/C2=N\O` (stereo unspecified), the results for the “fold change (FC)” value with NCI-H187 [1] and in the assay with Vero [6] were 12 and 180, respectively. Moreover, the figures for the IC50 in the assay on KB [2], in the assay with NCI-H187 [3] and in the assay with Vero [4] were 23.9 µM, 0.23 µM and 41.2 µM, respectively.

Usually IC50 stands for the concentration that inhibits the measured activity by half.
